Experimental data taken from patent US20090104119A1, “Dendrimer Based Compositions And Methods Of Using The Same” (priority 2004, published 2009).

Experiments:
KB cells [1] = test: Inhibition of cell growth by total cell protein
Method: Cell culture and treatment. KB cells were maintained in folate-free medium containing 10% serum (See, e.g., Quintana et al, Pharm. Res. 19, 1310 (2002)) to provide extracellular FA similar to that found in human serum. Cells were plated in 12-well plates for uptake studies, in 24-well plates for cell growth analysis, and in 96-well plates for XTT assay. Cells were rinsed with FA-free medium containing dialyzed serum and incubated at 37° C. with dendrimer-drug conjugates for the indicated time periods and concentrations. KB cells were also maintained in RPMI medium containing 2 μM FA to obtain cells which express low FAR.
Evaluation of dendrimer cytotoxicity. Cell growth was determined by assay of the total protein in lysates of treated cells using a bicinchoninic acid reagent (PIERCE, and by XTT assay, using a kit from Roche.
Time course and dose dependent inhibition of cell growth. Previous studies have shown that MTX-induced cytotoxicity is detectable in vitro only if the medium is completely deprived of FA (See, e.g., Sobrero & Bertino, Int. J. Cell Cloning 4, 51 (1986)). The effect of the trifunctional dendrimers on cell growth was tested in cells incubated in a FA-deficient medium. Cells were treated with 300 nM conjugates (equivalent of 1500 nM MTX) or 1500 nM free MTX for 1-4 days, and cell proliferation was determined by estimation of cellular protein content. Cells were treated for 2 days with different concentrations of the conjugates or free MTX (the conjugate concentration is given as MTX equivalents, with 5 MTX per dendrimer molecule). KB cells which express high and low FAR were incubated with 30 nM of the dendrimers for 1 hr at 37° C., rinsed, and the fluorescence of cells was determined by flow cytometric analysis (See. e.g., FIG. 21, left panel).
KB cells were treated with 150 or 500 nM MTX in the presence or absence of equimolar concentrations of free FA for 24 h. […] The cells were rinsed to remove the drugs and incubated with fresh medium for an additional 6 d, and total cell protein was determined.

KB cells [2] = test: Inhibition of cell growth by XTT assay; format: cell-based, human; conditions: 1, 2 or 3 days
Method: Cell culture and treatment.
Evaluation of dendrimer cytotoxicity.
Because the binding of the conjugate to KB cells reaches maximal uptake within 1 h (Quintana et al, 2002. Pharmaceutical Research 19: 1310-1316.), the effect of the G5-FI-FA-MTX on cell growth was initially tested by pre-incubation of cells with the conjugate for 1 h, followed by incubation in a drug-free medium for 5 d. […] When the cells were pre-incubated with dendrimers for 4 h, there was a modest decrease of about 10% in cell growth as determined by XTT assay. The cytotoxicity measurements were therefore done by incubation with the dendrimer for a minimum of 24 h, a pre-incubation time period shown to induce significant cytotoxicity.
The inhibition of cell growth induced by the conjugates was also tested by XTT assay which is based on the conversion of XTT to formazan by the active mitochondria of live cells (See, e.g., Roehm et al, J Immunol Methods 142, 257 (1991)).
As free FA blocks the uptake of the dendrimers as well as rescues cells from MTX-induced cytotoxicity, the effect of pre-incubation of cells with excess FA on the anti-proliferative effect of G5-FITC-FA-MTX was tested. KB cells were exposed to different concentrations of the conjugate or free MTX for 24 h in the absence or presence of 50 μM FA. The incubation medium was removed, the cells were rinsed and incubated with fresh medium for 5 additional days in the absence of the drugs, and the XTT assay was performed (See, e.g., FIG. 24, □, ▪, represents cells treated with MTX; Δ, ▴, represents cells treated with G5-FITC-FA-MTX).
The anti-proliferative effect of the MTX-conjugates was compared to conjugates that lacked either the FA or the FITC molecule. KB cells were incubated with 30 nM of the conjugates (=150 nM effective MTX concentration) for 24 h and the incubation medium was removed. The cells were rinsed and incubated for an additional 5 d in fresh medium in the absence of the drugs, and the XTT assay was performed.

s.c. human KB xenografts = test: Targeted drug delivery, tumor growth and survival in SCID mice with KB xenografts; format: in vivo, SCID CB-17 mice; conditions: for effect on tumor growth: first trial
Method: Recipient animal and tumor model.
(§1) Delivery of targeted nanoparticle therapeutic. Twice weekly, SCID mice with s.c. KB xenografts, starting on day 4 after tumor implantation, received via the tail vein an injection of either targeted or nontargeted conjugate containing methotrexate, a conjugate without methotrexate, free methotrexate, or saline as a control. The compounds were delivered in a 0.2 mL volume of saline per 20 g of mouse. The single dose of methotrexate delivered each time equaled 0.33 mg/kg. The higher doses of 1.67 and 3.33 mg/kg free methotrexate were also tested. The conjugates were delivered at equimolar concentration of methotrexate calculated based on the number of methotrexate molecules present in a nanoparticle. The conjugate without methotrexate was delivered at equimolar concentration of dendrimer. In the initial trial, six groups of mice with five mice in each group received up to 15 injections. In the follow-up trial, mice received up to 28 injections dependent on their survival. The body weights of the mice were monitored throughout the experiment as an indication of adverse effects of the drug. Histopathology of multiple organs was done at the termination of each trial and each time mouse had to be euthanized due to toxic effects or tumor burden. Tissues from lung, heart, liver, pancreas, spleen, kidney, and tumor were analyzed. Additionally, cells were isolated from tumors, stained with targeted fluorescein-labeled conjugate, and tested for the presence of folic acid receptors using flow cytometer.
Targeted drug delivery to tumor cells through the folate receptor. The efficacy of different doses of conjugates was tested on SCID CB-17 mice bearing s.c. human KB xenografts and was compared with equivalent and higher doses of free methotrexate. Mice were maintained on the folic acid-deficient diet for 3 weeks before injection of the KB tumor cells to achieve circulating levels of folic acid that approach those in human serum and to prevent down-regulation of folate receptors on tumor xenografts (See, Mathias et al., J Nucl Med 29, 1579 (1998)). Six groups of SCID mice with five mice in each group were injected s.c. on one flank with 5×10^6 KB cells in 0.2 mL PBS suspension. The highest total dose of G5-FI-FA-MTX therapeutic used equals 55.0 mg/kg and is equivalent to a 5.0 mg/kg total cumulative dose of free methotrexate (FIG. 29). The therapeutic dose of the conjugate was compared with three cumulative doses of free methotrexate equivalent to 33.3, 21.7, and 5.0 mg/kg accumulated in 10 to 15 injections based on mouse survival. Saline and the conjugate without methotrexate (G5-FI-FA) were used as controls.

[3] = Toxicity of dendrimer conjugates and free methotrexate in mice (body weight, histopathology); format: in vivo
Method: as §1
Toxicity of dendrimer conjugates. […] No gross toxicity, either acutely or chronically up to 99 days, was observed regardless of whether the dendrimer conjugate contained methotrexate. The weight was monitored throughout the experiment and no loss of weight was observed; in fact, the animals gained weight. At each time point, a gross examination and histopathology of the liver, spleen, kidney, lung, and heart were done. No morphologic abnormalities were observed on the histopathology examination.
The remaining experimental groups had very uniform body weight fluctuations nonindicative of toxicity when compared with control groups with saline or conjugate without methotrexate.

KB tumor = test: Biodistribution of fluorescent dendrimer conjugates in tumor (confocal microscopy, flow cytometry); format: in vivo, mice; conditions: single-cell suspension from tumors, versus nontargeted
Method: Biodistribution of fluorescent dendrimer conjugates. […] Flow cytometry analysis was done with single-cell suspension isolated from tumor. Tumor was crushed, cell suspension filtered through 70 μm nylon mesh (Becton Dickinson, Franklin Lakes, N.J.), and washed with in PBS. Samples were analyzed using an EPICS XL flow cytometer (Coulter, Miami, Fla.). As determined by prior propidium iodine staining, only live cells were gated for analysis. Data were reported as the mean channel fluorescence of the cell population.
For confocal microscope imaging, tissue was dissected, embedded in OCT, and frozen in 2-methyl-butane in a dry ice bath. Sections (15 μm) were cut on a cryostat, thaw mounted onto slides, and stored at −80° C. until stained. After staining, the slides were fixed in 4% paraformaldehyde, rinsed in phosphate buffer (0.1 mol/L; pH 7.2), and mounted in Prolong. The images were acquired using a Zeiss 510 metalaser scanning confocal microscope equipped with a ×40 Plan-Apo 1.2 numerical aperture (water immersion) objective with a correction collar. The confocal image was recorded as 512×512×48 pixels with a scale of 0.45×0.45×0.37 μm per pixel. Each image cube was optically cut into 48 sections, and the sections that cut through the nucleus and cytoplasm were presented.
Targeting and internalization of fluorescent dendrimer conjugate. […]

Compound | inhibition of cell growth (FIGS. 21 and 22) (KB cells [1]; FA-deficient medium, 1-4 days, different concentrations) | growth inhibition, free MTX versus equimolar MTX in G5-FITC-FA-MTX (KB cells [1]; below 1 μM) | inhibition of cell growth, XTT (KB cells [2]) | effect on tumor growth (s.c. human KB xenografts; up to 15 injections, cumulative 5.0 mg/kg methotrexate equivalents or equimolar dendrimer) | effect on tumor growth (s.c. human KB xenografts; cumulative 33.3 and 21.7 mg/kg) | day by which all mice died (s.c. human KB xenografts; second 99-day trial) [days] | survivors at the termination of the trial (s.c. human KB xenografts; second 99-day trial) | time at which doses became lethal ([3]; cumulative doses 33.3 and 21.7 mg/kg) [days] | histopathology of the liver ([3]; mouse, in vivo) | toxicity ([3]; total accumulated dose equivalent to 5.0 mg/kg free methotrexate) | mean channel fluorescence of tumor cells, flow cytometry (KB tumor)
CN(Cc1cnc2nc(N)nc(N)c2n1)c1ccc(C(=O)N[C@@H](CCC(=O)O)C(=O)O)cc1 [MTX, Methotrexate, reference compound] | inhibited cell growth in a time- and dose-dependent fashion | higher | time-dependent cytotoxicity | no effect on tumor growth | affecting tumor growth | ≤ 66 | no mice surviving | 32 to 36 | advanced liver lesions, collections of inflammatory cells, and periportal inflammation | nor free methotrexate at the same dose were toxic | –
G5-(Ac)82-(6-TAMRA)3-(FA)4 [G5-6T-FA] | – | – | – | – | – | – | – | – | – | – | higher
